In patent US20070191367A1, “3-SPIROINDOLIN-2-ONE DERIVATIVES, PREPARATION AND THERAPEUTIC USE THEREOF” (SANOFI-AVENTIS, priority 2004, published 2007):

Target: T1, recombinant human vasopressin V2 receptors (Homo sapiens, UniProt P30518)
T1 construct: expressed in transfected cells; host or cells: CHO cell line (plasma membranes)
Assay: In vitro binding assay, [H3]-AVP displacement at vasopressin V2 receptors
Settings: plasma membranes from tissues or CHO cell line; 3.5 nM [H3]-AVP; 45 minutes at 25° C.; read-out: IC50 (concentration of product that inhibits 50% of the specific binding)
Procedure: The affinity of the compounds of the invention for vasopressin V2 receptors was measured in in vitro binding assays, as described in J. Pharmacol. Exp. Ther., (2002), 300, pp. 1122-1130.
Plasma membranes (approximately 20 μg/ml) originating from tissues or the CHO cell line expressing recombinant human vasopressin V2 receptors are incubated for 45 minutes at 25° C. in 200 μl of TRIS-HCl buffer (50 mM; pH 8.2) containing 2 mM of MgCl2, 1 mM of EDTA, 0.1% of BSA, 1 mg/ml of bacitracin and 3.5 nM of [H^3]-AVP. The reaction is stopped by filtration and washing over GF/B filters. The nonspecific binding is determined in the presence of 1 μM of AVP. The compounds of the invention, dissolved beforehand at the concentration of 10^−2 M in DMSO, are tested in a dilution range.
For each concentration, the results are expressed as percentage inhibition of specific binding. An IC50 (concentration of product that inhibits 50% of the specific binding) is determined for each of the products using the “RS1 binding” program (BBN Domain, Cambridge, Mass).

T1 sequence (P30518 whole entry): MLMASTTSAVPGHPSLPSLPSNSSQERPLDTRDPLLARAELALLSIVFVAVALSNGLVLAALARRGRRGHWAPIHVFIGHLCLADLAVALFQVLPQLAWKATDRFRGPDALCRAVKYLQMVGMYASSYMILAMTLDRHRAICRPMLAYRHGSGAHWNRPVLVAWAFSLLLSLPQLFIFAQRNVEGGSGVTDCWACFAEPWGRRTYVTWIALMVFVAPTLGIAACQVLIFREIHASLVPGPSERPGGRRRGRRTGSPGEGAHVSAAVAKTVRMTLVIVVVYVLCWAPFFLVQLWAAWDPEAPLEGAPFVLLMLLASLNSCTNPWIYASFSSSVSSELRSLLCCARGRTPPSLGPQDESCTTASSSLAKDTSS

Structure (SMILES): CCOc1ccc2c(c1)C1(CCC(OCC(=O)N3CCOCC3)CC1)C(=O)N2S(=O)(=O)c1ccc(C(=O)NC(C)(C)C)cc1OC (stereo not shown) [Example]
- IC50: ~7.3 nM
